# Measured values as given in patent US6475768B1 (Forskarpatent I Syd AB, priority 2000, dated 2002).
# Substitutions are numbered along the chain they refer to.
# Legend:
# [1] = target: Thermus thermophilus xylose isomerase (xylA), mutant 1010 (M1010) (Thermus thermophilus, UniProt P26997); assay type: biochemical; details: read-out: Ki xylitol; mutant 1010, xylose 20-400 mM, fixed xylitol concentrations
# Experimental: (§1) The cells were harvested by centrifugation in the stationary phase of growth and washed once with ice cold distilled water. Washed cells were resusprended in 100 mM triethanolamine, pH 7.0, 0.5 mg/ml lysozyme (130000 U/mg), 0.25 mg/ml DNase, and 1 mM phenylmethylsulphonyl fluoride (PMSF) in dimethylsulfoxide (DMSO). The suspensions were kept at room temperature for one hour and then on ice for two hours before being put in a freezer at −20° C. The cell lysates were thawed on ice, cell debris was removed by centrifugation (1300 rpm for 15 minutes at 4° C.) and the supernatants were used as the crude enzyme preparations.
# (§2) Protein concentration was determined with the Bradford method (Bradford (1976)) using the Pierce protein reagent with bovine serum albumin as standard.
# (§3) The reaction was terminated after 10 minutes by adding 150 μl 50% trichloroaceticacid. The reaction mixture was neutralized with 185 μl 2 M Na2CO3. The formed xylulose or fructose was measured on a COBAS MIRA (Roche) automated spectrophotometer via enzymatic reduction with 0.04 or 0.5 units of Sorbitol Dehydrogenase (purchased from Roche), respectively in the presence of 0.15 mM NADH at pH 7.0, 37° C. in 200 μl reaction volume. The rate of disappearance of NADH was followed at 340 nm and the concentration of D-xylulose or D-fructose was calculated using calibration curves. […] The specific activity (U min^−1 mg^−1) was determined from the activity and the protein concentration of the crude enzyme preparations.
# The kinetic parameters Vmax (μmol min^−1 mg^−1) and Km (mM) were determined from Michaelis-Menten plots of specific activities at various substrate concentrations by nonlinear regression analysis with Sigma Plot (SSPS Inc.) software. Typically, duplicate measurements were used to determine the Km value at 6-10 concentrations of the substrate, with a concentration range covering the value of Km.
# [2] = target: T1, Thermus thermophilus xylose isomerase (xylA), mutant 1021 (M1021) (Thermus thermophilus, UniProt P26997, E372G/V379A); experiment: Kinetic characterisation of mutant xylose isomerase 1021 (xylose/glucose isomerase activity, xylitol inhibition); assay type: biochemical
# T1 construct: made in house; host or cells: E. coli HB101 (crude lysate)
# T1 sequence (P26997 1-387 E372G/V379A): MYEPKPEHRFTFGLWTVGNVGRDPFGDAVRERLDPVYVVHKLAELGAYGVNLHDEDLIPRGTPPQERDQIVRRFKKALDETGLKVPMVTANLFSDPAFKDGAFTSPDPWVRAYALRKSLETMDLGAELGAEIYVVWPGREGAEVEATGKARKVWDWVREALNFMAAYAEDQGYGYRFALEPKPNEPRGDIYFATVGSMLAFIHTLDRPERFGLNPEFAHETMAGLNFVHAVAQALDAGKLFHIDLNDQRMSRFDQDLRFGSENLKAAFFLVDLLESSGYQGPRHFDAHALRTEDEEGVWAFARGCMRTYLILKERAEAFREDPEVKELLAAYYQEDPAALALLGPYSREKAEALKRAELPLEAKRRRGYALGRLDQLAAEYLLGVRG
# Experimental: as §1, §2
# The reaction was terminated after 10 minutes by adding 150 μl 50% trichloroaceticacid. The reaction mixture was neutralized with 185 μl 2 M Na2CO3. The formed xylulose or fructose was measured on a COBAS MIRA (Roche) automated spectrophotometer via enzymatic reduction with 0.04 or 0.5 units of Sorbitol Dehydrogenase (purchased from Roche), respectively in the presence of 0.15 mM NADH at pH 7.0, 37° C. in 200 μl reaction volume. The rate of disappearance of NADH was followed at 340 nm and the concentration of D-xylulose or D-fructose was calculated using calibration curves. […]
# [3] = target: Thermus thermophilus xylose isomerase mutants (1010, 1021, 1024, 1026); experiment: Inhibition constant for xylitol, mutants compared to wildtype; assay type: biochemical; details: the mutants compared to the wildtype enzyme, xylose 20-400 mM
# Experimental: as §1
# as §3, with “preparations. […]” for “preparations.”
# [4] = target: T2, Thermus thermophilus xylose isomerase, wild type (nucleic acid sequence SEQ ID NO: 2) (Thermus thermophilus, UniProt P26997); experiment: biochemical
# T2 sequence (P26997 1-387): T1 sequence (P26997 1-387 E372G/V379A) with G372E, A379V
# Chain of Thermus thermophilus xylose isomerase (xylA), mutant 1010 (M1010) (P26997 whole entry, change not shown): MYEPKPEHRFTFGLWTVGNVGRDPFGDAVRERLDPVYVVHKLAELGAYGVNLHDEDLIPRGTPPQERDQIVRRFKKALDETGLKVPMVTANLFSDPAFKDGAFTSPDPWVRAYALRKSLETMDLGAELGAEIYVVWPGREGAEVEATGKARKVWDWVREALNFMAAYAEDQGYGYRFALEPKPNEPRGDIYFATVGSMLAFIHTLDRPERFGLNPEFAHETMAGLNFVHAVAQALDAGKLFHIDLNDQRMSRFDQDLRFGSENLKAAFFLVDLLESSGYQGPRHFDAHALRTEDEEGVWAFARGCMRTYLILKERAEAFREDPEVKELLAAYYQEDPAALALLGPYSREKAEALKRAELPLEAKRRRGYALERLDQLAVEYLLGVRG
structure (smiles),measurement,setting,value
OC[C@@H](O)[C@H](O)[C@@H](O)CO [xylitol],Ki,[1],10.1 mM
same,Ki,[2],33.2 mM
same,Ki for xylitol,[3],higher Ki for xylitol
same,Ki,[4],4.6 mM
